Test results: PubChem BioAssay AID1963837 (Molecular Pharmacology Branch, DTP, NCI, 2024)

Test system: 843126-344-R-J1-PDC complex spheroid viability
Assay: Anticancer human tumor 843126-344-R-J1-PDC patient-derived melanoma cell line growth inhibition [POLQ]
Conditions: for IC50: curve of first compound; for viability, T/C: stronger effect = lower value; active = viability on the fitted dose curve at most 10% of control; inactive = the rest
Summary of the method: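 Growth inhibition in 3D: complex spheroids (tumor PDC, HUVEC, MSC) treated with POLQ inhibitor combinations; where Cmax unknown, highest tested concentration 10 microM, except SN-38 at 1 microM.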

[1] = second compound 0.0316 µM, first compound 0.0316 µM
[2] = second compound 0.0316 µM, first compound 0.1 µM
[3] = second compound 0.0316 µM, first compound 0.316 µM
[4] = second compound 0.0316 µM, first compound 1 µM
[5] = second compound 0.0316 µM, first compound 3.16 µM
[6] = second compound 0.0316 µM, first compound 10 µM
[7] = second compound 0.1 µM, first compound 0.0316 µM
[8] = second compound 0.1 µM, first compound 0.1 µM
[9] = second compound 0.1 µM, first compound 0.316 µM
[10] = second compound 0.1 µM, first compound 1 µM
[11] = second compound 0.1 µM, first compound 3.16 µM
[12] = second compound 0.1 µM, first compound 10 µM
[13] = second compound 0.316 µM, first compound 0.0316 µM
[14] = second compound 0.316 µM, first compound 0.1 µM
[15] = second compound 0.316 µM, first compound 0.316 µM
[16] = second compound 0.316 µM, first compound 1 µM
[17] = second compound 0.316 µM, first compound 3.16 µM
[18] = second compound 0.316 µM, first compound 10 µM
[19] = second compound 1 µM, first compound 0.0316 µM
[20] = second compound 1 µM, first compound 0.1 µM
[21] = second compound 1 µM, first compound 0.316 µM
[22] = second compound 1 µM, first compound 1 µM
[23] = second compound 1 µM, first compound 3.16 µM
[24] = second compound 1 µM, first compound 10 µM
[25] = second compound 3.16 µM, first compound 0.0316 µM
[26] = second compound 3.16 µM, first compound 0.1 µM
[27] = second compound 3.16 µM, first compound 0.316 µM
[28] = second compound 3.16 µM, first compound 1 µM
[29] = second compound 3.16 µM, first compound 3.16 µM
[30] = second compound 3.16 µM, first compound 10 µM
[31] = second compound 10 µM, first compound 0.0316 µM
[32] = second compound 10 µM, first compound 0.1 µM
[33] = second compound 10 µM, first compound 0.316 µM
[34] = second compound 10 µM, first compound 1 µM
[35] = second compound 10 µM, first compound 3.16 µM
[36] = second compound 10 µM, first compound 10 µM
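Throughout, for viability, T/C: spheroids exposed to drugs for seven days before readout.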

CCc1cc2c(N3CCc4c(cc(Cn5ccnc5)cc4-c4cn(C)nc4C(F)(F)F)C3=O)cc(C)nc2c(OC)n1 + Nc1ccc(C#CCN(C(=O)Cc2ncc(C(F)(F)F)cc2C(F)(F)F)c2ccc(F)cc2)nn1
> 10 µM: IC50 (second compound 0.0316 µM) | IC50 (second compound 0.1 µM) | IC50 (second compound 0.316 µM) | IC50 (second compound 1 µM) | IC50 (second compound 3.16 µM) | IC50 (second compound 10 µM)
inactive: viability, T/C [1] 96.9% | viability, T/C [2] 95.3% | viability, T/C [3] 82% | viability, T/C [4] 80.7% | viability, T/C [5] 73.2% | viability, T/C [6] 58.8% | viability, T/C [7] 97.5% | viability, T/C [8] 99.5% | viability, T/C [9] 89.1% | viability, T/C [10] 82% | viability, T/C [11] 79.7% | viability, T/C [12] 58.2% | viability, T/C [13] 87.5% | viability, T/C [14] 97.4% | viability, T/C [15] 77.6% | viability, T/C [16] 84.6% | viability, T/C [17] 76.8% | viability, T/C [18] 66.7% | viability, T/C [19] 104% | viability, T/C [20] 94% | viability, T/C [21] 80.3% | viability, T/C [22] 81.7% | viability, T/C [23] 68.6% | viability, T/C [24] 58.8% | viability, T/C [25] 90.6% | viability, T/C [26] 85.9% | viability, T/C [27] 93.4% | viability, T/C [28] 74.8% | viability, T/C [29] 66.2% | viability, T/C [30] 64% | viability, T/C [31] 83.3% | viability, T/C [32] 89.6% | viability, T/C [33] 75.8% | viability, T/C [34] 81.5% | viability, T/C [35] 73.3% | viability, T/C [36] 59.4%

CC1COCCN1c1cc(-c2ccnn2C)c2ccnc(-c3ccn[nH]3)c2n1 (stereo unspecified) + COC1C(OC(N)=O)C(O)C(Oc2ccc3c(O)c(NC(=O)c4ccc(O)c(CC=C(C)C)c4)c(=O)oc3c2C)OC1(C)C
inactive: viability, T/C [1] 98.7% | viability, T/C [2] 69.8% | viability, T/C [3] 66.3% | viability, T/C [4] 54.2% | viability, T/C [5] 35.5% | viability, T/C [6] 34.2% | viability, T/C [7] 81.1% | viability, T/C [8] 76.5% | viability, T/C [9] 67.1% | viability, T/C [10] 47.2% | viability, T/C [11] 33.4% | viability, T/C [12] 26.4% | viability, T/C [13] 92.4% | viability, T/C [14] 73.7% | viability, T/C [15] 60.4% | viability, T/C [16] 46.2% | viability, T/C [17] 38.1% | viability, T/C [18] 23.7% | viability, T/C [19] 65.7% | viability, T/C [20] 77.5% | viability, T/C [21] 71.3% | viability, T/C [22] 53.5% | viability, T/C [23] 36.3% | viability, T/C [24] 32% | viability, T/C [25] 73.3% | viability, T/C [26] 83% | viability, T/C [27] 58.5% | viability, T/C [28] 45.9% | viability, T/C [29] 42.1% | viability, T/C [30] 25% | viability, T/C [31] 73.3% | viability, T/C [32] 77.5% | viability, T/C [33] 61.5% | viability, T/C [34] 46.1% | viability, T/C [35] 42.9% | viability, T/C [36] 24.3%
1.04 µM: IC50 (second compound 0.0316 µM)
0.875 µM: IC50 (second compound 0.1 µM)
0.918 µM: IC50 (second compound 3.16 µM)
1.27 µM: IC50 (second compound 1 µM)
0.784 µM: IC50 (second compound 0.316 µM)
1.1 µM: IC50 (second compound 10 µM)

C#Cc1c(F)ccc2cc(O)cc(-c3ncc4c(N5CC6CCC(C5)N6)nc(OCC56CCCN5CC(F)C6)nc4c3F)c12 (stereo unspecified) + Nc1ccc(C#CCN(C(=O)Cc2ncc(C(F)(F)F)cc2C(F)(F)F)c2ccc(F)cc2)nn1
inactive: viability, T/C [1] 87.4% | viability, T/C [2] 95.1% | viability, T/C [3] 99.8% | viability, T/C [4] 88.7% | viability, T/C [5] 121% | viability, T/C [6] 76.5% | viability, T/C [7] 106% | viability, T/C [8] 110% | viability, T/C [9] 96.7% | viability, T/C [10] 108% | viability, T/C [11] 103% | viability, T/C [12] 84.5% | viability, T/C [13] 100% | viability, T/C [14] 91.4% | viability, T/C [15] 84.5% | viability, T/C [16] 110% | viability, T/C [17] 95.1% | viability, T/C [18] 90.8% | viability, T/C [19] 107% | viability, T/C [20] 91.2% | viability, T/C [21] 91.2% | viability, T/C [22] 117% | viability, T/C [23] 109% | viability, T/C [24] 88.8% | viability, T/C [25] 89.1% | viability, T/C [26] 84.2% | viability, T/C [27] 108% | viability, T/C [28] 94.5% | viability, T/C [29] 97.6% | viability, T/C [30] 82.6% | viability, T/C [31] 95.3% | viability, T/C [32] 83.4% | viability, T/C [33] 86.5% | viability, T/C [34] 83.6% | viability, T/C [35] 85.8% | viability, T/C [36] 79.4%
> 10 µM: IC50 (second compound 0.0316 µM) | IC50 (second compound 0.1 µM) | IC50 (second compound 0.316 µM) | IC50 (second compound 1 µM) | IC50 (second compound 3.16 µM) | IC50 (second compound 10 µM)
